Test results from ChEMBL document CHEMBL3627628, “New macrocyclic analogs of the natural histone deacetylase inhibitor FK228; design, synthesis and preliminary biological evaluation” (Bioorg Med Chem, 2015).
The source made the active and inactive calls. The calls are words filed in the database; no cut-off is given here.

Assays:
IGROV-1 = assay: cells; details: Homo sapiens, IGROV-1, 72 h
cells = details: Homo sapiens, IGROV-1, 72 h
HCT-116 = assay: Antitumor activity against human HCT116 cells xenografted in Swiss mouse assessed as tumor growth inhibition at 10 mg/kg, ip dosed starting day 1 post tumor implantation and repeated every 7 days for 4 times; type: functional, organism-based
Mus musculus = assay: Toxicity in human HCT116 cells xenografted Swiss mouse at 10 mg/kg, ip dosed starting day 1 post tumor implantation and repeated every 7 days for 4 times; type: organism-based, HCT-116; details: in vivo, 168 h
Histone deacetylase 1 = Histone deacetylase 1 (Homo sapiens, UniProt Q13547); assay: Inhibition of HDAC1 (unknown origin) incubated for 1 hr by fluor de lys substrate based fluorescence method
Histone deacetylase 1, sequence (Q13547 whole entry): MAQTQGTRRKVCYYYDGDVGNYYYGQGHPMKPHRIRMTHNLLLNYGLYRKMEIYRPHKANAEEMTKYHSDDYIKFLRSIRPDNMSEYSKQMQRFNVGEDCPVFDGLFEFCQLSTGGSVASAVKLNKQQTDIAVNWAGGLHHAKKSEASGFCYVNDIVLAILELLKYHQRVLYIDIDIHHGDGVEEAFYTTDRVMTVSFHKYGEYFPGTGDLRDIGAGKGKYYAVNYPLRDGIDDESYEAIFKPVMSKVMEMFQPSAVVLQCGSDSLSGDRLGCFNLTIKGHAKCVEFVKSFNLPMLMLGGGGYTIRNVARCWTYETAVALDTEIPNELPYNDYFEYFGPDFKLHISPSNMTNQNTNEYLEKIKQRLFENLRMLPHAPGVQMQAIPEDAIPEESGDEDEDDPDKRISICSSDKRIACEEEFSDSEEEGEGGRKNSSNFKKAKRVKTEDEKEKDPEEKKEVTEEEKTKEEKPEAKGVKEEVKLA

[1] = target: T1, Protein deacetylase HDAC6 (Homo sapiens, UniProt Q9UBN7); assay: Inhibition of HDAC6 (unknown origin) incubated for 1 hr by fluor de lys substrate based fluorescence method
T1 sequence (Q9UBN7 whole entry): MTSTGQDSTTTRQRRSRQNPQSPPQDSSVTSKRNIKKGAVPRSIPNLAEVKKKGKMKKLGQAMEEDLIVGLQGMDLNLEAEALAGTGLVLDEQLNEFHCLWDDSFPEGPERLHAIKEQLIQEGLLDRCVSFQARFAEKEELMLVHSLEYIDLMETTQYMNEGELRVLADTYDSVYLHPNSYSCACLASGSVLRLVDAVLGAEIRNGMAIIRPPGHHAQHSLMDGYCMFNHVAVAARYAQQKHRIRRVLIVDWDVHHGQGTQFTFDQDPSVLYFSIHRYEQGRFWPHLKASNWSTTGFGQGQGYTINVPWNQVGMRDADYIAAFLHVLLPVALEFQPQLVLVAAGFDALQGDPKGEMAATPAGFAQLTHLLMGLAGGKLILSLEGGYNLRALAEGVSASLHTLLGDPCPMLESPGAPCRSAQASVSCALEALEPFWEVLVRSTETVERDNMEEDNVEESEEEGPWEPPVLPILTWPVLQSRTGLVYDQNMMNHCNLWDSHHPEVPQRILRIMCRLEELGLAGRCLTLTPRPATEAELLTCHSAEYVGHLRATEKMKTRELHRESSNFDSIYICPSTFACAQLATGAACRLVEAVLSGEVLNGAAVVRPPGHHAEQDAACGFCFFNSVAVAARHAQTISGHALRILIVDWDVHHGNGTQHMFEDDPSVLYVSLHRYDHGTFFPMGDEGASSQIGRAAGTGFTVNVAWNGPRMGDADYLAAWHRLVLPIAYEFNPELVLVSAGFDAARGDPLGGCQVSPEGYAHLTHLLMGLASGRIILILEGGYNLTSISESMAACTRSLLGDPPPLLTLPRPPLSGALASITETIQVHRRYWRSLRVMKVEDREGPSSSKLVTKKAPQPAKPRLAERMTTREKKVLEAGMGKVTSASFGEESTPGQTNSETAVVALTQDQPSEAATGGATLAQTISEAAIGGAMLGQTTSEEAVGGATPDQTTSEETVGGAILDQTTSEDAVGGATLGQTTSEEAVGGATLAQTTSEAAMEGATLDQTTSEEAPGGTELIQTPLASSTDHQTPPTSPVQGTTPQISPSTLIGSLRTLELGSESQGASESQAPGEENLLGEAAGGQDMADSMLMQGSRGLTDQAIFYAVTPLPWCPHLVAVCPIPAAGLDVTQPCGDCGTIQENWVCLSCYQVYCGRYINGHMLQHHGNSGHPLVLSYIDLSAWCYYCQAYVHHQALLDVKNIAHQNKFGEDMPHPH

Histone deacetylase 8 = target: T2, Histone deacetylase 8 (Homo sapiens, UniProt Q9BY41); assay: Inhibition of HDAC8 (unknown origin) incubated for 1 hr by fluor de lys substrate based fluorescence method
T2 sequence (Q9BY41 whole entry): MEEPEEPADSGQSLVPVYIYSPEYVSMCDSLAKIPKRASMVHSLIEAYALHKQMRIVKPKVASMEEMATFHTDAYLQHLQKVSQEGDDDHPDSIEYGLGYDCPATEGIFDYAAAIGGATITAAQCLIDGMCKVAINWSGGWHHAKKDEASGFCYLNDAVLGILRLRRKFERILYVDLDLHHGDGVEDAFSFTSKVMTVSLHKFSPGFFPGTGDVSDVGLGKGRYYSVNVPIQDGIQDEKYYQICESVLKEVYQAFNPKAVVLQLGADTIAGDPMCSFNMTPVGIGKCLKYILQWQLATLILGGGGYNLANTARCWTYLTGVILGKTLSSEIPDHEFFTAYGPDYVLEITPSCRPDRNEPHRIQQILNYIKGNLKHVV

| IC50 (IGROV-1) [nM] | IC50 (cells) [nM] | IC50 (Histone deacetylase 1) [nM] | IC50 [1] [µM] | IC50 (Histone deacetylase 8) [µM] | SMILES | TGI (HCT-116) | Activity (Mus musculus) |
| --- | --- | --- | --- | --- | --- | --- | --- |
| 970 | 120 | – | – | – | CC(=O)SCC/C=C/[C@@H]1CC(=O)N[C@H](Cc2ccccc2)C(=O)N[C@H](C)C(=O)N[C@H](C(C)C)c2cn(nn2)CC(=O)O1 | – | – |
| 25 | 15 | – | – | – | C=C(C)[C@H]1NC(=O)[C@H]2CSSCC/C=C/[C@H](CC(=O)N[C@H](C)C(=O)N2)OC(=O)C[C@@H]1O [SPIRUCHOSTATIN A] | – | – |
| 600 | 200 | – | – | – | CC(C)[C@H]1NC(=O)C[C@H]2/C=C/CCSSC[C@@H](NC1=O)C(=O)NCc1cc(-c3ccccc3)ccc1CC(=O)O2 | Active | Non-toxic |
| 3300 | 11000 | – | – | – | CC(C)[C@@H]1NC(=O)CC(=O)O[C@@H]2/C=C/CCSSC[C@@H](NC(=O)[C@@H](C(C)C)NC(=O)C2)C(=O)N1 | – | – |
| > 10000 | 2200 | – | – | – | CC(=O)SCC/C=C/[C@@H]1CC(=O)N[C@H](C(C)C)C(=O)N[C@H](Cc2ccc(O)cc2)C(=O)N[C@H](C(C)C)c2cn(nn2)CC(=O)O1 | – | – |
| > 10000 | > 10000 | – | – | – | CC(C)[C@H]1NC(=O)C[C@H]2/C=C/CCSSC[C@@H](NC1=O)C(=O)N(C)Cc1ccccc1CC(=O)O2 | – | – |
| > 10000 | > 10000 | – | – | – | CC(C)[C@H]1NC(=O)C[C@H]2/C=C/CCSSC[C@@H](NC1=O)C(=O)Nc1ccccc1C(=O)NCC(=O)O2 | – | – |
| 6000 | 270 | – | – | – | CC[C@H]1NC(=O)[C@@H](C(C)C)NC(=O)C[C@@H](/C=C/CCSC(C)=O)OC(=O)CNC(=O)[C@@H](C(C)C)NC1=O | – | – |
| 10600 | 1500 | 1040 | 9.89 | 1.62 | CC(=O)SCC/C=C/[C@@H]1CC(=O)N[C@H](C(C)C)C(=O)N[C@H](Cc2cn(C)cn2)C(=O)N[C@H](C(C)C)c2cn(nn2)CC(=O)O1 | – | – |
| 230 | 9 | 1270 | 18.3 | 14.3 | CCCCCCCC(=O)SCC/C=C/[C@@H]1CC(=O)N[C@H](C(C)C)C(=O)N[C@H](C)C(=O)N[C@H](C(C)C)C(=O)NCC(=O)O1 | – | – |
| > 10000 | > 10000 | – | – | – | CC(C)[C@H]1NC(=O)C[C@H]2/C=C/CCSSC[C@@H](NC1=O)C(=O)N1CCC(CC1)CC(=O)O2 | – | – |
| 7000 | 1500 | – | – | – | CC(C)[C@H]1NC(=O)C[C@H]2/C=C/CCSSC[C@@H](NC1=O)C(=O)NC1CCC(CC1)C(=O)O2 | – | – |
| 3500 | 470 | – | – | – | CC(C)[C@H]1NC(=O)C[C@H]2/C=C/CCSSC[C@@H](NC1=O)C(=O)NCc1ccc(Cl)cc1CC(=O)O2 | – | – |
| 700 | 30 | 820 | 8.9 | 8.01 | CCCCCCCCSSCC/C=C/[C@@H]1CC(=O)N[C@H](C(C)C)C(=O)N[C@H](C)C(=O)N[C@H](C(C)C)C(=O)NCC(=O)O1 | – | – |
| 2000 | 2500 | – | – | – | CC(C)[C@H]1NC(=O)C[C@H]2/C=C/CCSSC[C@@H](NC1=O)C(=O)NCc1cc(Br)ccc1CC(=O)O2 | – | – |
| 510 | 180 | – | – | – | CC(C)[C@H]1NC(=O)C[C@H]2/C=C/CCSSC[C@@H](NC1=O)C(=O)NCc1cc(OC(F)(F)F)ccc1CC(=O)O2 | – | – |
| 2810 | 780 | – | – | – | CC(C)[C@H]1NC(=O)C[C@H]2/C=C/CCSSC[C@@H](NC1=O)C(=O)NCc1[nH]c3ccccc3c1CC(=O)O2 | – | – |
| 400 | 110 | – | – | – | CC(C)[C@H]1NC(=O)C[C@H]2/C=C/CCSSC[C@@H](NC1=O)C(=O)N[C@H](C(C)C)c1cn(nn1)CC(=O)O2 | – | – |
| 2750 | 380 | – | – | – | CC(C)[C@H]1NC(=O)C[C@H]2/C=C/CCSSC[C@@H](NC1=O)C(=O)NCc1ccc(Br)cc1CC(=O)O2 | – | – |
| 2500 | 400 | – | – | – | CC(C)[C@H]1NC(=O)C[C@H]2/C=C/CCSSC[C@@H](NC1=O)C(=O)NCc1ccccc1CC(=O)O2 | – | – |
| > 10000 | > 10000 | – | – | – | CC(C)[C@H]1NC(=O)C[C@H]2/C=C/CCSSC[C@@H](NC1=O)C(=O)Nc1cccc(c1)CC(=O)O2 | – | – |
| 3100 | 190 | 1050 | 8.67 | 1.8 | CC(=O)SCC/C=C/[C@@H]1CC(=O)N[C@H](C(C)C)C(=O)N[C@H](Cc2ccccc2)C(=O)N[C@H](C(C)C)c2cn(nn2)CC(=O)O1 | – | – |
